“And” between values parts separate entries of the source, which are not always exact repeats. Equal values may be shown once.
Assays:
MDR STm = test: PNA growth assay (optical density) on clinical isolate; type: cell-based, Salmonella enterica serovar typhimurium; settings: for growth inhibition: MDR STm, 10 μM PNA, optical density vs no treatment at 16 hours; for monotherapy effect (in words): clinical isolate of Salmonella
Description: Bacterial Cell culture: The clinical isolates were obtained from the lab of Nancy Madinger at the University of Colorado Anschutz campus. Clinical isolates were grown in Cation Adjusted Mueller Hinton broth (CAMHB) (Becton, Dickinson and Company 212322) at 37° C. with 225 rpm shaking or on solid CAMHB with 1.5% agar at 37° C. Clinical isolates were maintained as freezer stocks in 90% CAMHB, 10% glycerol at −80° C. Freezer stocks were streaked out onto solid CAMHB and incubated for 16 h to produce single colonies prior to experiments. For each biological replicate, a single colony was picked from solid media and grown for 16 h in liquid CAMHB prior to experiments. Non-clinical isolates, such as E. coli MG1655 (ATCC700926) and Salmonella entorica serovar typhimurium SL1344, were cultured in liquid 2% lysogeny broth (LB) or on 2% LB with 1.5% agar for solid plates. S. typhimurium cultures were supplemented with 30 μg/mL streptomycin and SL1344 strains containing plasmids pFPV (SL1344-mCherry) or pRG1 modified with a lacIq promoter (SL1344-Holin) were supplemented with 100 μg/mL ampicillin. Freezer stocks were stored in 60% LB broth, 40% glycerol at −80° C. Freezer stocks were streaked out onto solid LB and incubated for 16 h to produce single colonies before experiments. For biological replicates, single colonies were started in liquid LB and grown for 16 hours prior to experiments. E. coli MG1655 PNA growth experiments were carried out in M9 media (1×M9 minimal media salts solution (MP Biomedicals), 2.0 mM MgSO4, and 0.1 mM CaCl2 in sterile water) with 0.4% glucose.
PNA growth assay: Biological replicates were diluted 1:10,000 into treatment condition in 384-well plates and measured for 24 h in a Tecan GENios at 562 nm with a bandwidth of 35 nm. Media absorbance blanks were subtracted from data prior to analysis. Normalized optical density (OD) data is shown normalized to the time point where the “no treatment” growth curves reached saturation phase which varied across biological replicates.

SL1344 = test: Effect of 45-minute incubation with PNA on SL1344 viability; type: cell-based, Salmonella enterica serovar typhimurium; settings: 10 μM, 45 minutes
Description: FIG. 13. Effect of 45-minute incubation with PNA treatment during infection. (A) Individual colonies of SL1344 were picked off of solid media and grown for 16 hours in luria broth supplemented with 30 μg/mL streptomycin, diluted 1:10, and regrown for 4 hours. After regrowth bacteria was diluted to a concentration equivalent to a […] multiplicity of infection of 200,000 cells/mL in 100 μL (conditions of HeLa cell infection after 24 hours growth). Cultures were suspended in phosphate buffered saline and treated with 10 μM of either α-lexA, α-rpsD, or plain phosphate buffered saline for 45 minutes before serial dilution, plated on solid media (40 μg/mL streptomycin), and incubated for 16 hours. Colony forming units were counted to enumerate percent infection with respect to no treatment. There is no significant difference (p>0.05) between α-lexA and α-rpsD at 45 minutes of treatment. […] Percent infection was then calculated in comparison to each replicates' no treatment. […]
Effect of PNA after 45 min of incubation during HeLa infection: SL1344 were cultured as described above and split 1:10 and regrown for 4 hours. […] Samples (10 μL) were taken at t=0 (before PNA addition) and t=45 min (after PNA treatment), and serially diluted, plated, and grown for 16 hours at 37° C. and CFU counted.

α-lexA: 12-mer antisense PNA cGGAATGAAAGC (SEQ ID NO. 17) targeting lexA, conjugated to (KFF)3K cell penetrating peptide via AEEA-linker (antisense CGGAATGAAAGC; all peptide nucleic acid (PNA); (KFF)3K cell-penetrating peptide attached via AEEA linker)
growth inhibition (MDR STm): 62±5.4%
monotherapy effect (in words) (MDR STm): effective against the clinical isolate of Salmonella
bacterial viability after co-incubation (in words) (SL1344): not long enough for the PNA to decrease bacterial viability

α-rpsD: 12-mer antisense PNA AGAAAATGGCAA (SEQ ID NO. 19) targeting rpsD, conjugated to (KFF)3K cell penetrating peptide via AEEA-linker (all peptide nucleic acid (PNA); (KFF)3K cell-penetrating peptide attached via AEEA linker)
growth inhibition (MDR STm): 99±0.1% and 99%
monotherapy effect (in words) (MDR STm): effective against the clinical isolate of Salmonella
bacterial viability after co-incubation (in words) (SL1344): not long enough for the PNA to decrease bacterial viability
